# Legend:
# [1] = Cytotoxicity against human MRC5 cells assessed as reduction in cell viability incubated for 3 days by resazurin dye based fluorescence analysis; format: toxicity; settings: time 3 day
# [2] = Cytotoxicity against Swiss mouse peritoneal macrophages assessed as reduction in cell viability measured after 5 days by microscopic analysis; format: toxicity, cell-based, Peritoneal macrophage; settings: time 5 day
# Leishmania infantum = assay: Antileishmanial activity against intracellular Leishmania infantum MHOM/MA(BE)/67 ITMAP263 amastigotes infected in Swiss mouse peritoneal macrophage assessed as inhibition of parasite growth measured after 5 days by geimsa staining based microscopic analysis; format: functional, organism-based; settings: MHOM/MA(BE)/67 ITMAP263, Peritoneal macrophage, 120 h
# [3] = Selectivity index, ratio of CC50 for Cytotoxicity against Swiss mouse peritoneal macrophages to EC50 for intracellular Leishmania infantum MHOM/MA(BE)/67 ITMAP263 amastigotes infected in Swiss mouse peritoneal macrophages; format: toxicity, cell-based; settings: read-out: Ratio CC50/EC50
# Trypanosoma cruzi = assay: Antitrypanosomal activity against nifurtimox-sensitive Tulahuen CL2 amastigotes expressing beta galactosidase infected in human MRC5 cells assessed as inhibition of parasite growth using chlorophenol red beta-D-galactopyranoside as substrate and measured after 7 days by spectrophotometric analysis; format: functional, organism-based; settings: Tulahuen CL2, MRC5, 168 h
# [4] = Selectivity index, ratio of CC50 for cytotoxicity against human MRC5 cells to EC50 for Trypanosoma cruzi Tulahuen CL2 amastigotes expressing beta galactosidase infected in human MRC5 cells; format: toxicity, cell-based; settings: read-out: Ratio CC50/EC50
Compound,CC50 at 72 h [1],CC50 at 120 h [2],EC50 (Leishmania infantum),selectivity ratio [3],EC50 (Trypanosoma cruzi; read-out: EC50),selectivity ratio [4],EC50 (Trypanosoma cruzi)
Cc1ncnc2c1c(-c1cccc(F)n1)cn2[C@@H]1O[C@H](CO)[C@@H](O)[C@H]1O,> 64 µM,> 64 µM,> 64 µM,,,,
Cc1ncnc2c1c(-c1cccc3c1oc1ccccc13)cn2[C@@H]1O[C@H](CO)[C@@H](O)[C@H]1O,12.7 µM,> 64 µM,50.8 µM,> 1.2,,,
Cc1ncnc2c1c(-c1ccccc1F)cn2[C@@H]1O[C@H](CO)[C@@H](O)[C@H]1O,> 64 µM,> 64 µM,> 64 µM,,,,
Cc1ncnc2c1c(-c1cccc3c1N=CC3)cn2[C@@H]1O[C@H](CO)[C@@H](O)[C@H]1O,> 64 µM,> 64 µM,2.1 µM,> 30,3.3 µM,> 19,
Cc1ncnc2c1c(-c1cncnc1)cn2[C@@H]1O[C@H](CO)[C@@H](O)[C@H]1O,> 64 µM,> 64 µM,6.5 µM,> 9.9,7.3 µM,> 8.8,
COc1ccnc(-c2cn([C@@H]3O[C@H](CO)[C@@H](O)[C@H]3O)c3ncnc(C)c23)c1,> 64 µM,> 64 µM,> 64 µM,,,,
Cc1ncnc2c1c(-c1cc3ccccc3cn1)cn2[C@@H]1O[C@H](CO)[C@@H](O)[C@H]1O,> 64 µM,> 64 µM,> 64 µM,,,,
Cc1ncnc2c1c(-c1ccncc1)cn2[C@@H]1O[C@H](CO)[C@@H](O)[C@H]1O,> 64 µM,> 64 µM,> 64 µM,,,,
Cc1ncnc2c1c(-c1ccc(Cl)cc1)cn2[C@@H]1O[C@H](CO)[C@@H](O)[C@H]1O,,> 64 µM,16.1 µM,> 3.5,,,
Cc1ncnc2c1c(-c1cccc3cccnc13)cn2[C@@H]1O[C@H](CO)[C@@H](O)[C@H]1O,> 64 µM,> 64 µM,3.7 µM,> 17,9.6 µM,> 6.7,
Cc1ncnc2c1c(-c1cccs1)cn2[C@@H]1O[C@H](CO)[C@@H](O)[C@H]1O,,32 µM,12.7 µM,2.5,,,
Cc1ncnc2c1c(C1=CCOCC1)cn2[C@@H]1O[C@H](CO)[C@@H](O)[C@H]1O,,> 64 µM,24.5 µM,,,,
Cc1ncnc2c1c(-c1cnn(C)c1)cn2[C@@H]1O[C@H](CO)[C@@H](O)[C@H]1O,> 64 µM,> 64 µM,8 µM,> 8,,,
Cc1ncnc2c1c(-c1cc3ccccc3o1)cn2[C@@H]1O[C@H](CO)[C@@H](O)[C@H]1O,45.8 µM,32 µM,20.3 µM,1.58,,,
Cc1ncnc2c1c(-c1cc3ccccc3[nH]1)cn2[C@@H]1O[C@H](CO)[C@@H](O)[C@H]1O,14.8 µM,> 64 µM,1.7 µM,> 36,0.62 µM,24,
Cc1ncnc2c1c(-c1ccc3ccccc3n1)cn2[C@@H]1O[C@H](CO)[C@@H](O)[C@H]1O,> 64 µM,> 64 µM,> 64 µM,,,,
Cc1ncnc2c1c(-c1cccc3ccn(C)c13)cn2[C@@H]1O[C@H](CO)[C@@H](O)[C@H]1O,> 64 µM,> 64 µM,> 64 µM,,,,
Cc1ncnc2c1c(CCc1ccccn1)cn2[C@@H]1O[C@H](CO)[C@@H](O)[C@H]1O,> 64 µM,> 64 µM,> 64 µM,,,,
Cc1ncnc2c1c(-c1ccc(S(C)(=O)=O)cc1)cn2[C@@H]1O[C@H](CO)[C@@H](O)[C@H]1O,,> 64 µM,6.7 µM,> 9.5,,,
CSc1ccccc1-c1cn([C@@H]2O[C@H](CO)[C@@H](O)[C@H]2O)c2ncnc(C)c12,> 64 µM,> 64 µM,> 64 µM,,,,
Cc1ncnc2c1c(-c1cccnc1)cn2[C@@H]1O[C@H](CO)[C@@H](O)[C@H]1O,> 64 µM,> 64 µM,22.6 µM,> 2.8,,,
Cc1ncnc2c1c(-c1ccc(C(F)(F)F)cc1)cn2[C@@H]1O[C@H](CO)[C@@H](O)[C@H]1O,,> 64 µM,11.3 µM,> 5.6,,,

Compound,CC50 at 72 h [1],CC50 at 120 h [2],EC50 (Leishmania infantum),selectivity ratio [3],EC50 (Trypanosoma cruzi; read-out: EC50),selectivity ratio [4],EC50 (Trypanosoma cruzi)
Cc1ncnc2c1c(-c1ccoc1)cn2[C@@H]1O[C@H](CO)[C@@H](O)[C@H]1O,> 64 µM,> 64 µM,> 64 µM,,,,
Cc1ncnc2c1c(/C=C/c1ccccn1)cn2[C@@H]1O[C@H](CO)[C@@H](O)[C@H]1O,> 64 µM,> 64 µM,19 µM,> 3.37,,,
COc1cc(-c2cn([C@@H]3O[C@H](CO)[C@@H](O)[C@H]3O)c3ncnc(C)c23)ccc1Cl,,> 64 µM,8.76 µM,> 7.3,,,
Cc1ncnc2c1c(-c1cccc(Cl)n1)cn2[C@@H]1O[C@H](CO)[C@@H](O)[C@H]1O,> 64 µM,> 64 µM,14.2 µM,> 4.51,,,
Cc1ncnc2c1c(-c1ccccc1[N+](=O)[O-])cn2[C@@H]1O[C@H](CO)[C@@H](O)[C@H]1O,> 64 µM,> 64 µM,> 64 µM,,,,
Cc1ncnc2c1c(-c1cnccn1)cn2[C@@H]1O[C@H](CO)[C@@H](O)[C@H]1O,> 64 µM,> 64 µM,10.1 µM,> 6.3,,,
Cc1ncnc2c1c(-c1ccc[nH]1)cn2[C@@H]1O[C@H](CO)[C@@H](O)[C@H]1O,12.9 µM,32 µM,0.35 µM,91.4,0.68 µM,19,
COc1ccccc1-c1cn([C@@H]2O[C@H](CO)[C@@H](O)[C@H]2O)c2ncnc(C)c12,> 64 µM,> 64 µM,21.1 µM,> 3,,,
Cc1ncnc2c1c(-c1ccc(Cl)c(F)c1)cn2[C@@H]1O[C@H](CO)[C@@H](O)[C@H]1O,,> 64 µM,7.9 µM,> 8,,,
Cc1ncnc2c1c(-c1ccc(Cl)nc1)cn2[C@@H]1O[C@H](CO)[C@@H](O)[C@H]1O,> 64 µM,> 64 µM,> 64 µM,,,,
Cc1ncnc2c1c(-c1ccc(N)cc1)cn2[C@@H]1O[C@H](CO)[C@@H](O)[C@H]1O,,> 64 µM,6.7 µM,> 9.5,,,
Cc1ncnc2c1c(-c1cc[nH]n1)cn2[C@@H]1O[C@H](CO)[C@@H](O)[C@H]1O,27.9 µM,> 64 µM,8 µM,> 8,,,
Cc1ncnc2c1c(-c1ncccn1)cn2[C@@H]1O[C@H](CO)[C@@H](O)[C@H]1O,> 64 µM,> 64 µM,8.2 µM,> 7.8,5.9 µM,> 10,
Cc1ncnc2c1c(-c1ccsc1)cn2[C@@H]1O[C@H](CO)[C@@H](O)[C@H]1O,> 64 µM,> 64 µM,> 64 µM,,,,
Cc1ncnc2c1c(-c1nccs1)cn2[C@@H]1O[C@H](CO)[C@@H](O)[C@H]1O,6.06 µM,32 µM,2.07 µM,15.5,0.66 µM,9.2,
Cc1ncnc2c1c(-c1ccccc1Cl)cn2[C@@H]1O[C@H](CO)[C@@H](O)[C@H]1O,> 64 µM,> 64 µM,20.4 µM,> 3.1,,,
Cc1ncnc2c1c(-c1ccccn1)cn2[C@@H]1O[C@H](CO)[C@@H](O)[C@H]1O,> 64 µM,> 64 µM,2.3 µM,> 27,1.6 µM,> 39,
Cc1ncnc2c1c(Sc1ccccc1)cn2[C@@H]1O[C@H](CO)[C@@H](O)[C@H]1O,> 64 µM,> 64 µM,> 64 µM,,,,
Oc1ncnc2[nH]ncc12 [ALLOPURINOL],> 64 µM,> 64 µM,3.5 µM,> 18,,,
O=C(Cn1ccnc1[N+](=O)[O-])NCc1ccccc1 [BENZNIDAZOLE],,,,,,,2.28 µM
Cc1ncnc2c1c(-c1ccc(Cl)cn1)cn2[C@@H]1O[C@H](CO)[C@@H](O)[C@H]1O,26.3 µM,> 64 µM,0.4 µM,> 160,0.49 µM,53,
Cc1ncnc2c1c(-c1ccccc1N)cn2[C@@H]1O[C@H](CO)[C@@H](O)[C@H]1O,> 64 µM,> 64 µM,> 64 µM,,,,
